Data on 79 molecules can be found in the RepoRT retention time repository.

Each structure is given as a SMILES string.

The data set can be described thus: Agilent ZORBAX 300 SB-C18, 150 × 1 mm, 3.5 µm; A: water + 0.01% heptafluorobutyric acid; B: acetonitrile + 0.01% heptafluorobutyric acid; gradient (min/%B) 0/0 100/90. Conditions: stereoisomer not certain.
As to `CC(C)(N)Cc1ccccc1`, the LC retention time amounted to 8.82 min.
Then `CC(C)CC(N)C(N)=O` (centres undefined), with 6.71 min; and `Cc1ccc(Nc2cc(=O)oc3ccccc23)cc1C`, with 14.2 min; and `CCNC(=S)Nc1ccccc1N`, with 8.14 min.
As for `CC1=NCC(=O)N1c1cccc(N)c1`, the figure is 7.1 min.
Regarding `C=CCC1(C(C)C)C(=O)NC(=O)NC1=O`, the LC retention time was determined as 9.74 min.
As to `CN1CCC(OC(=O)Cc2ccccc2)CC1`, the LC retention time stood at 8.85 min.
With `Cc1cc(O)c(C(C)C)cc1NC(=O)Cn1nc(C)c2ccccc2c1=O`, the LC retention time was found to be 11.9 min.
As for `COC(=O)c1[nH]c2ccccc2c1-n1cccc1`, the figure is 14.3 min; as for `CCNCc1ccccc1`, 7.68 min.
Then `Cc1nnc(NN=Cc2ccc(N(C)C)cc2)[nH]c1=O`, with 9.86 min.
As for `Nc1ccc2c(c1)COC2=O`, the figure is 7.27 min; as for `O=C(O)CCNc1cc(C(=O)O)ccc1C(=O)O`, 7.69 min; as for `Cc1nc2c(ccc3[nH]c(C)nc32)[nH]1`, 7.32 min.
As for `C(=NNc1nncc2ccccc12)c1cccnc1`, the LC retention time is 8.37 min.
As for `CN(C)C1CCNC1` (centres undefined), the figure is 6.6 min.
Then `Nc1c(S(=O)(=O)O)[nH]c(=O)[nH]c1=O`, with 1.22 min; and `CN1CCC23c4c5ccc(OC6OC(C(=O)O)C(O)C(O)C6O)c4OC2C(O)C=CC3C1C5` (centres undefined), with 6.59 min; and `CCCCNC`, with 7.29 min.
Then `COc1cccc(C2C3=C(CC(C)(C)CC3=O)OC3=C2C(=O)CC(C)(C)C3)c1OC`, with 16.5 min.
`CCOc1ccc(N2C(=O)CC(N(Cc3ccc4c(c3)OCO4)C(C)=O)C2=O)cc1` (centres undefined): the LC retention time is 12.5 min.
As for `O=C1c2ccccc2C(O)(c2ccccc2)N1C(c1ccccc1)c1ccccc1` (centres undefined), the figure is 16.8 min; as for `Cn1c(=O)c2ccc(C(=O)Nc3ccc4ccccc4n3)cc2c(=O)n1C`, 10.4 min; as for `c1ccc(CN2CCN(Cc3ccncc3)CC2)nc1`, 7.31 min.
As for `O=C(NN=CC=NNC(=O)c1ccccn1)c1ccccn1`, the figure is 8.62 min; as for `CCCCc1ccc(-n2c(CCC(=O)O)ccc2-c2ccccc2)cc1`, 18.1 min.
Then `CC(N)=O`, with 1.61 min; and `NC1Cc2ccccc2NC1=O` (centres undefined), with 7.26 min.
Consider `Cc1cc(C=O)c(C)n1-c1ccccc1`, for which the LC retention time was 13 min.
Then `O=C1NC2CCCCC2NC1CC(=O)N1CCN(Cc2ccccc2)CC1` (centres undefined), with 7.88 min; and `O=c1ccc2ccccc2[nH]1`, with 8.83 min.
As for `C1=CCNC1`, the figure is 2.99 min; as for `NC(=O)c1cnc2ccccc2n1`, 8.31 min.
In the case of `O=c1[nH]c2ccccc2[nH]c1=O`, the LC retention time was determined as 6.56 min.
Then `Cc1nc2ccccc2nc1COc1ccc2c(c1)OCO2`, with 14.1 min.
As to `CC(C)Cc1nc2ccccc2n1CC(C)C`, the LC retention time came to 10.9 min.
Then `O=C(O)C1CCCCC1C(=O)Nc1ccc2c(c1)CCCC2` (centres undefined), with 13.8 min; and `NC(=S)NCCc1ccccc1`, with 9.59 min.
As for `Cc1ccnc(C)c1`, the figure is 6.8 min; as for `Cc1ccc(N2CCN(C(=O)C(c3ccccc3)c3ccccc3)CC2)cc1C`, 17.5 min.
Turning to `Cc1ccc(C(=O)c2ccc(CC(=O)O)n2C)cc1`, the LC retention time was 10.5 min.
For `Cc1ccc(-c2cc3ccccc3[nH]2)c(C)c1`, the LC retention time was 17.6 min.
Then `Nc1cc(=O)[nH]c(=S)n1C1CCCC1`, with 8.94 min; and `C=C(C)CC1C=CCC(CC(=C)C)N1Cc1ccccc1` (centres undefined), with 11.9 min; and `CCCCn1ccnc1`, with 7.5 min.
Regarding `Nc1ccccc1OCCOc1ccccc1N`, the LC retention time stood at 8.96 min.
Then `NCCCc1ccccn1`, with 6.8 min; and `O=C(O)CC1C(=O)Nc2ccccc21` (centres undefined), with 7.72 min.
As for `CCCCCCCCCCC(N)=O`, the figure is 15.3 min.
As for `Cn1c(C(=O)O)cc2ccccc21`, the figure is 11.4 min; as for `CCN(CC)C(=O)N1CCN(c2ccc(N)cc2)CC1`, 8.72 min; as for `O=C(CCN1C(=O)c2ccccc2C1=O)Nc1cccc(C(=O)O)c1`, 10.2 min.
Turning to `CCn1c2ccccc2c2cc(C=Nn3c(C)cc(C)cc3=O)ccc21`, the LC retention time worked out at 15.9 min.
As for `Nc1ccc(C(=O)NN=Cc2cccc3ccccc23)cc1`, the figure is 11.6 min.
Then `CC(=O)NCC(NC(C)=O)C(C)(C)C` (centres undefined), with 7.28 min; and `O=C(C=Cc1ccccc1O)c1ccccc1O`, with 14.5 min.
As to `CN(Cc1ccccc1)C(=O)c1ccco1`, the LC retention time amounted to 11.8 min.
Then `CN(C)CCC=C1c2ccccc2C=Cc2ccccc21`, with 11.6 min; and `Cc1ccc2nc(-c3nn[nH]n3)ccc2c1`, with 10.5 min; and `c1ccc(Nc2ccccc2)cc1`, with 15.4 min.
As for `Nc1cccnc1`, the figure is 5.54 min.
For the molecule `COC(=O)c1c(C)[nH]c(-c2ccccc2)c1-c1ccccc1`, the LC retention time turned out to be 15.6 min.
Then `Cc1ccccc1-n1c(O)c(C=C2C=Nc3ccccc32)c(=O)n(-c2ccccc2C)c1=O`, with 15.9 min.
As for `C=CCNC1CCCCC1`, the figure is 7.93 min; as for `Cn1c(=O)c2cc(S(=O)(=O)O)ccc2n(C)c1=O`, 5.36 min.
Take `CNc1cnccn1`: the LC retention time was found to be 6.32 min.
As for `C[N+](C)(C)CCOP(=O)(O)OP(=O)(O)OCC1OC(n2ccc(N)nc2=O)C(O)C1O` (centres undefined), the figure is 1.63 min; as for `NCc1ccccc1`, 7.6 min.
Then `C1CCCNCCC1`, with 7.37 min.
For the molecule `Nc1cc(C(=O)N2CCCCC2)cc(C(=O)N2CCCCC2)c1`, the LC retention time was 9.88 min.
Then `Cc1cc(C(=O)O)c2ccccc2n1`, with 5.51 min; and `Cn1c2c(c(=O)[nH]c1=O)C(c1ccccc1)C1=C(N2)c2ccccc2C1=O` (centres undefined), with 10.6 min.
Then `Oc1ccc2c3c1OC1C(O)CCC4(O)C(C2)N(CC2CCC2)CCC314` (centres undefined), with 8.75 min; and `CCN(CC)CCNc1cccc2ccccc12`, with 10.1 min; and `CNC(C)c1ccccc1` (centres undefined), with 7.92 min.
As for `Cc1nn(CC(=O)NCc2ccccn2)c(=O)c2ccccc12`, the figure is 8.37 min; as for `Cc1cc(N)c2c(c1)CCC(=O)N2`, 8.69 min; as for `Cc1cc(C=O)c(C)n1C1CCCCC1`, 14.4 min.
Turning to `CC(C)N(C)C`, the LC retention time amounted to 5.87 min.
